Here are results for two compounds from PubChem BioAssay AID1963853 (Molecular Pharmacology Branch, DTP, NCI, 2024).

Where “and” joins values, the source holds several entries; their conditions need not be identical. Identical values can stand only once.

This assay deals with 266295-075-R-J1-PDC spheroid viability. The assay is described as follows: Anticancer human tumor 266295-075-R-J1-PDC patient-derived head and neck squamous carcinoma cell line growth inhibition [POLQ]. The note with it: spheroids with HUVEC and MSC; for viability, T/C: stronger effect = lower value; for IC50: curve of compound. Put shortly: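 PDC + HUVEC + MSC complex spheroids; POLQ inhibitors ± partner drugs; top conc. at/near clinical Cmax, else 10 microM (SN-38 1 microM), half-log dilutions; 37 degrees C, 5% CO2.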
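Note: spheroids exposed to compounds for seven days before readout.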

Regarding `CCc1cc2c(N3CCc4c(cc(Cn5ccnc5)cc4-c4cn(C)nc4C(F)(F)F)C3=O)ccnc2c(OC)n1`, the IC50 was more than 10 µM. Moreover, the viability, T/C (compound 0.0316 µM) was 90% and 97.3% and 94%. Further, where the note is “compound 0.1 µM”, the viability, T/C is 86.8% and 96.2% and 103%. Besides, the viability, T/C (compound 0.316 µM) is 93.4% and 103% and 122%. For the same compound, the viability, T/C (compound 1 µM) is 106% (2×) and 117%. Moreover, for the setting “compound 3.16 µM”, the viability, T/C is 125% and 145% and 137%. For the same compound, the viability, T/C (compound 10 µM) is 126% and 117% and 140%.
`Cn1ncnc1[C@H]1c2n[nH]c(=O)c3cc(F)cc(c23)N[C@@H]1c1ccc(F)cc1`: the IC50 was more than 0.1 µM. Moreover, the viability, T/C (compound 0.000316 µM) was 103% and 112% and 99.9%. For the same compound, the viability, T/C (compound 0.001 µM) was 100% and 92.9% and 88.8%. Where the note is “compound 0.00316 µM”, the viability, T/C is 87.1% and 103% and 107%. Besides, the viability, T/C (compound 0.01 µM) was 102% (2×) and 92.9%. Besides, the viability, T/C (compound 0.0316 µM) is 104% and 112% and 89%. Besides, under “compound 0.1 µM”, the viability, T/C is 118% and 101% and 105%.

By viability, T/C is commonly meant the ratio of treated to control. By IC50 is commonly meant the concentration needed to halve the response being measured.
